# According to ChEMBL document CHEMBL3044847, “Evaluation of systemic acquired resistance inducers for control of Phytophthora capsici on squash” (Crop Prot, 2009):
# Activity calls are given as the source filed them. The calls are words filed in the database; no cut-off is given here.
# Experiments:
# Phytophthora capsici [1] = assay: Insecticidal activity against Phytophthora capsici assessed as inhibition of sporangium production at 25 to 1000 ug/ml after 4 days; type: functional, organism-based
# Phytophthora capsici [2] = assay: Insecticidal activity against Phytophthora capsici assessed as inhibition of zoospore germination at 25 to 1000 ug/ml after 4 days with 16 hr photoperiod; type: functional, organism-based
# Phytophthora capsici [3] = assay: Insecticidal activity against Phytophthora capsici assessed as inhibition of mycelial growth by measuring perpendicular colony diameter at 25 to 2000 ug/ml after 8 days; type: functional, organism-based
# Cucurbita pepo [4] = assay: Phytotoxicity in Cucurbita pepo (pumpkin) assessed as effect on host weight and height under greenhouse condition at 50 ug/ml; type: organism-based; settings: in vivo
# Cucurbita pepo [5] = assay: Toxicity in Cucurbita pepo (pumpkin) assessed as effect on host weight and height under greenhouse condition at 25 to 50 ug/ml; type: organism-based; settings: in vivo
# Phytophthora capsici [6] = assay: Insecticidal activity against Phytophthora capsici in Cucurbita pepo assessed as effect on host weight and height under greenhouse condition at 25 to 50 ug/ml; type: functional, organism-based
# Phytophthora capsici [7] = assay: Insecticidal activity against 10^3 spores/ml of Phytophthora capsici in Cucurbita pepo assessed as reduction of disease severity under greenhouse condition at 25 to 50 ug/ml applied as foliar spray after 1 week; type: functional, organism-based
# Phytophthora capsici [8] = assay: Insecticidal activity against Phytophthora capsici in Cucurbita pepo assessed as reduction of disease severity under greenhouse condition at 25 to 50 ug/ml after 1 week; type: functional, organism-based
# Phytophthora capsici [9] = assay: Insecticidal activity against Phytophthora capsici assessed as inhibition of sporangium production after 4 days; type: functional, organism-based
# Phytophthora capsici [10] = assay: Insecticidal activity against Phytophthora capsici assessed as inhibition of zoospore germination at 500 to 1000 ug/ml after 4 days with 16 hr photoperiod; type: functional, organism-based
# Phytophthora capsici [11] = assay: Insecticidal activity against 10^4 spores/ml of Phytophthora capsici in Cucurbita pepo assessed as reduction of disease severity under greenhouse condition at 25 to 50 ug/ml applied as foliar spray after 1 week; type: functional, organism-based
# Phytophthora capsici [12] = assay: Insecticidal activity against Phytophthora capsici assessed as inhibition of sporangium production at 500 to 1000 ug/ml after 4 days; type: functional, organism-based
Compound,inhibition (Phytophthora capsici [1]),inhibition (Phytophthora capsici [2]),inhibition (Phytophthora capsici [3]),Activity (Cucurbita pepo [4]),Activity (Cucurbita pepo [5]),Activity (Phytophthora capsici [6]),Activity (Phytophthora capsici [7]),Activity (Phytophthora capsici [8]),inhibition (Phytophthora capsici [9]),inhibition (Phytophthora capsici [10]),Activity (Phytophthora capsici [11]),inhibition (Phytophthora capsici [12])
CC(N)CC(=O)O (racemic),inactive,inactive,inactive,Non-toxic,Non-toxic,Active,Active,Active,–,–,–,–
"O=C(O)c1cc(Cl)nc(Cl)c1 [2,6-DICHLOROISONICOTINIC ACID]",–,–,Active,Toxic,–,Active,Active,Active,Dose-dependent effect,Active,Active,–
CSC(=O)c1cccc2nnsc12 [ACIBENZOLAR-S-METHYL],–,inactive,inactive,Toxic,–,Active,Active,Active,–,–,Active,Active
O=C(O)c1ccccc1O [SALICYLIC ACID],–,–,–,–,Non-toxic,Active,–,–,–,Active,–,–
